Key:
globular embryos = experiment: Elongation of globular embryos (bilayer culture system); assay type: cell-based, Cucumis sativus; settings: in liquid embryo culture medium
Source text: In one embodiment, the LECM comprises one or more HDACi and/or one or more polyamines, preferably both HDACi and polyamine. The HDACi and/or the polyamine can be selected from the above lists, and can be present in any of the aforementioned quantities, in the LECM. In certain embodiments, the LECM further comprises plant growth regulators, in particular selected from auxins, cytokinins, gibberellins, abscisic acid, and mixtures thereof. In a preferred embodiment, the LECM comprises abscisic acid, in an amount effective to enable the development of the embryos. In particular, the LECM comprises from 0.5 to 5 ppm abscisic acid, still preferably from 1 to 2 ppm abscisic acid.
Globular embryos are visible after 20 to 40 days of culture in MEDM medium. To obtain elongated embryos, the inventors have used a bilayer culture system on a rotary shaker at 50-70 rpm in the dark for about 30 day, which has enabled the elongation of the embryos (FIG. 2E to 2G). The bilayer culture system is made of two layers, one lower solid medium made of MEEM with activated charcoal and solidified with 7 g/L agar (see Table 7) and one upper liquid medium, still made of MEDM supplemented with 1-2 ppm abscisic acid and containing the embryos to be elongated.

isolated microspores = experiment: Test of various compounds within the IMC media (all with SAHA 10 μM); assay type: cell-based, Cucumis sativus; settings: in association with SAHA
Description: Isolated microspores are obtained according to the method described in Example 2, and cultured. […] All media comprise M404 basal medium and carbohydrates as in the MEIM composition described in Table 7, supplemented with 10 μM SAHA plus various other additional compounds. “Event” represents embryogenic callus or embryos.
The microspore cultures are evaluated for their production of multicellular structures and/or normal embryos.

[1] = system: isolated microspores of Cucumis sativus; experiment: Isolated microspore culture (IMC) of cucumber with HDACi and/or polyamine: formation and classification of multicellular structures; assay type: cell-based; settings: for Classification of the multicellular structures / Response (% of formation of multicellular structures): no polyamine
Description: The solution of microspore is diluted to a concentration of about 30,000-150,000 cells/mL using a haemocytometer to count the microspore density. This is done in a Microspore Embryogenesis Induction Medium (MEIM), which components are described in Table 7. The solution is aliquoted by 4-6 mL into 60 mm×50 mm petri plates and sealed, for a heat shock of 24-72 hour at 30-33° C. in the dark.
The isolated microspores are then cultured in the dark at 22-28° C. for about four to five weeks until globular embryos can be seen by bare eyes.
The MEIM medium complemented with polyamine is referred to as a Microspore embryo development medium (MEDM) which components are described in Table 7.
One will note that the Response % is the percentage of formation of multicellular structures, not the analysis or classification of such structures as normal or abnormal. The last column (classification of the multicellular structures) reflects the observation of the multicellular structures according to criteria which defines whether they are normal or abnormal, i.e. uniformity of the cells, and compactness of the multicellular structures.

For CC1=CC(=O)CC(C)(C)[C@@]1(O)/C=C/C(C)=C\C(=O)O [Abscisic acid, abscisic acid], the “effect on elongation of the embryos” value (globular embryos) was “positive effect”.
In the case of NCCCCN [Putrescine, putrescine], the “development of normal embryos from the isolated microspores” value (isolated microspores) is reported as “enable the development of normal embryos”.
For O=C(CCCCCCC(=O)Nc1ccccc1)NO [SAHA, suberoylanilide hydroxamic acid], the “Classification of the multicellular structures” value (shortened to “Classification”) ([1]; cultivar HMX4453, SAHA 10 μM) was “Abnormal”, the “Response (% of formation of multicellular structures)” value ([1]; cultivar HMX4453, SAHA 10 μM) was 9.6% and the “Classification” value ([1]; cultivar PI518848, SAHA 5 μM) was “Abnormal”. The “Response (% of formation of multicellular structures)” value ([1]; cultivar PI518848, SAHA 5 μM) was 13.7%, the “Classification” value ([1]; cultivar PI518848, SAHA 10 μM) was “Abnormal” and the “Response (% of formation of multicellular structures)” value ([1]; cultivar PI518848, SAHA 10 μM) was 17.3%. The multicellular microspore formations ([1]; isolated microspore cultures with SAHA but without polyamine) was “more present but are abnormal”.
In the case of CC(/C=C/C(=O)NO)=C\[C@@H](C)C(=O)c1ccc(N(C)C)cc1 [TSA, trichostatin A], the “response compared with SAHA” value ([1]; another HDACi tested in isolated microspore culture) is reported as “lower response than for the SAHA”, the “Classification” value ([1]; cultivar PI518848, TSA 0.5 μM) is reported as “Abnormal” and the “Response (% of formation of multicellular structures)” value ([1]; cultivar PI518848, TSA 0.5 μM) is reported as 4.3%.

— patent US11026381B2, “Method for producing haploid, dihaploid and doubled haploid plants by isolated microspore culture” (Vilmorin & Cie, priority 2015, dated 2021)
